Among the data in ChEMBL document CHEMBL1153095, “Design, synthesis and evaluation of 4,7-diamino-1,10-phenanthroline G-quadruplex ligands” (Bioorg Med Chem, 2009) are ΔTm, Kd and Tm values, retold here.

Common to all, as to format: nucleic-acid assay
Experiment [1] has as its system Nucleic Acid. The experiment is described as follows: Stabilization of 5'-d[(G3T2A)3G3]-3' quadruplex DNA assessed as change in melting temperature at 20 uM by CD-spectrophotometry.
The target in experiment [2] is Nucleic Acid. The experiment is described as follows: Binding affinity to 5'-d[(G3T2A)3G3]-3' quadruplex DNA by surface plasmon resonance.
Experiment [3] concerns Nucleic Acid. Description: Stabilization of 5'-d[(G3T2A)3G3]-3' quadruplex DNA assessed as change in melting temperature at 5 uM by CD-spectrophotometry.
In experiment [4] the test system is Nucleic Acid. The experiment is described as follows: Stabilization of 5'-d[(G3T2A)3G3]-3' quadruplex DNA assessed as change in melting temperature at 10 uM by CD-spectrophotometry.
The subject of experiment [5] is Nucleic Acid. Description: Stabilization of 5'-d[(AT)10]-3' duplex DNA assessed as melting temperature at 20 uM by CD-spectrophotometry.

Regarding `N=C(N)NCCCNc1ccnc2c1ccc1c(NCCCNC(=N)N)ccnc12`, the ΔTm in the experiment on Nucleic Acid [1] worked out at 16.6 °C; with Nucleic Acid [3] it was 6 °C; in the experiment with Nucleic Acid [4] it was 14.2 °C. For the same molecule, the Kd on Nucleic Acid [2] was 410 nM.
With `N=C(N)NCCCCNc1ccnc2c1ccc1c(NCCCCNC(=N)N)ccnc12`, the ΔTm came to 17.3 °C in the experiment on Nucleic Acid [1], 6.1 °C with Nucleic Acid [3] and 14.7 °C in the experiment on Nucleic Acid [4]. Besides, binding at Nucleic Acid [2] was characterised by a dissociation constant (Kd) of 330 nM. The Tm in the experiment on Nucleic Acid [5] came out at 63 °C.
Regarding `Nc1ccnc2c1ccc1c(N)ccnc12`, the ΔTm with Nucleic Acid [1] came to 1.3 °C.
In the case of `NCCCNc1ccnc2c1ccc1c(NCCCN)ccnc12`, the values for the ΔTm in the experiment with Nucleic Acid [1], in the experiment with Nucleic Acid [3] and in the experiment with Nucleic Acid [4] were 13.1 °C, 2.4 °C and 10.6 °C, respectively. The Kd on Nucleic Acid [2] stood at 450 nM.
Regarding `CN(C)CCCNc1ccnc2c1ccc1c(NCCCN(C)C)ccnc12`, the ΔTm amounted to 13.3 °C in the experiment with Nucleic Acid [1], 1.9 °C in the experiment with Nucleic Acid [3] and 10.6 °C in the experiment with Nucleic Acid [4]. The same molecule gave a Kd at Nucleic Acid [2] of 300 nM.
Taken in the same sequence, the figures for `CN(C)CCNc1ccnc2c1ccc1c(NCCN(C)C)ccnc12` were 10.5 °C, 1.8 °C, 8.8 °C and 820 nM.
Regarding `Cc1ccnc2c1ccc1c(C)ccnc12`, in the experiment with Nucleic Acid [1], the ΔTm was 0.1 °C.
Still for that read-out and setting: the same measure for `c1cnc2c(c1)ccc1cccnc12`: 0 °C.
In the case of `N=C(N)NCCNc1ccnc2c1ccc1c(NCCNC(=N)N)ccnc12`, the results for the shift in melting temperature (ΔTm) with Nucleic Acid [1], with Nucleic Acid [3] and with Nucleic Acid [4] were 13.7 °C, 3 °C and 9.9 °C, respectively. Further, binding on Nucleic Acid [2] was put at a Kd of 400 nM.
The like results for `CN(C)CCCCNc1ccnc2c1ccc1c(NCCCCN(C)C)ccnc12` were, in that order, 14.4 °C, 2.3 °C, 13 °C and 330 nM.
Take `NCCCCNc1ccnc2c1ccc1c(NCCCCN)ccnc12`: the ΔTm with Nucleic Acid [1] is 15.3 °C; with Nucleic Acid [3], 2.5 °C; with Nucleic Acid [4] it was 14.6 °C. The same molecule registered a Kd at Nucleic Acid [2] of 230 nM. Besides, the Tm in the experiment with Nucleic Acid [5] is 57 °C.
`NCCNc1ccnc2c1ccc1c(NCCN)ccnc12`: the ΔTm was determined as 9.9 °C with Nucleic Acid [1], 2 °C with Nucleic Acid [3] and 7.6 °C in the experiment with Nucleic Acid [4]. Binding on Nucleic Acid [2] was characterised by a dissociation constant (Kd) of 720 nM.
